Reference: patent publication US20250320213A1, “Nitrogen-Containing Heterocyclic Compounds” (Pfizer Inc., priority 2024, published 2025)

What was measured:
[1] = tested on: CCL17 secretion in peripheral human whole blood; experiment: Human Whole Blood (HWB) CCL17 TR-FRET Assay (IL-13 stimulated CCL17 secretion); type: cell-based; conditions: Homo sapiens, 48 h, inhibition of CCL17 secretion in human whole blood, 10 ng/mL IL13, 48 hours
How it was run: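 Heparin-anticoagulated human blood; cpd 11-pt 3-fold dilution, duplicate, 2 h 37 °C preinc; IL-13 10 ng/mL final, 48 h 37 °C; spin, serum CCL17 by TR-FRET ELISA, 16 h RT, 665/615 ratio; IC50.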

STAT6 = biological target: T1, STAT6 (Homo sapiens, UniProt P42226); experiment: STAT6 Reporter Luciferase Assay (IL-13 stimulated HaCaT keratinocyte NanoLuc reporter cells); type: cell-based; conditions: STAT6 NanoLuc luciferase reporter, IL-13 stimulated HaCaT keratinocyte cells; read-out: Reporter EC50
T1 construct: stably transfected HaCaT keratinocyte cell line, which expresses NanoLuc luciferase reporter gene under the transcriptional control of the STAT6 responsive promoter; endogenous in cells; host or cells: HaCaT keratinocyte reporter cell line (stably transfected with a NanoLuc reporter)
T1 sequence (P42226 1-847): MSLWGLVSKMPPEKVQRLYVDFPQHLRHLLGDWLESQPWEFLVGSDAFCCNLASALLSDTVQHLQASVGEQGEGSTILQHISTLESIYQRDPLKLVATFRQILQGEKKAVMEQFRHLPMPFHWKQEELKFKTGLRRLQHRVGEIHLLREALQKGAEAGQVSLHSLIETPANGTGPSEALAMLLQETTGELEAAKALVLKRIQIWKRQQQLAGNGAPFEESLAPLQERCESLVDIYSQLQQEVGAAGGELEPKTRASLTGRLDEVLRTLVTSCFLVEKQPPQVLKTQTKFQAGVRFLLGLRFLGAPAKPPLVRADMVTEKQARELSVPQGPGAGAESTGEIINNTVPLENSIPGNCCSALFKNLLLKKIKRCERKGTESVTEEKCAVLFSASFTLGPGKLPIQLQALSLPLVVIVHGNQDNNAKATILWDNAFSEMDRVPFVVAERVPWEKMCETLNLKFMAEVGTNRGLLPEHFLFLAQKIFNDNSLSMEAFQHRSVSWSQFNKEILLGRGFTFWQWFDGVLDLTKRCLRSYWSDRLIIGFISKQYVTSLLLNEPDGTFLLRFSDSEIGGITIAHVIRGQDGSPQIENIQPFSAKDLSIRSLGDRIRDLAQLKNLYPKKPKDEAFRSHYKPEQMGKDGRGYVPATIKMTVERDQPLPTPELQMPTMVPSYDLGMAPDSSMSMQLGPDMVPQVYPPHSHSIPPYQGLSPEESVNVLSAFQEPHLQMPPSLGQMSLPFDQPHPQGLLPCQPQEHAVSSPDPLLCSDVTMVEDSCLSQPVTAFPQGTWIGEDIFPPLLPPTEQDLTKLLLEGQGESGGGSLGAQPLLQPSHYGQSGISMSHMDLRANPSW
How it was run: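 Cells were plated overnight, washed, exposed to compound for two hours, stimulated with IL-13 (0.12 nM final) for four hours at 37 °C, and then lysed with Nano-Glo substrate for 15 min before luminescence reading.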

Compound	IC50 [1] [nM]	EC50 (STAT6) [nM]
CN(C)C(=O)Nc1ccc(CNC(=O)c2nn(C)c3c2CN(c2ccc(C(=O)N(C)C)cn2)CC3(F)F)cc1 [Example 70, 5-(5-(dimethylcarbamoyl)pyridin-2-yl)-N-(4-(3,3-dimethylureido)benzyl)-7,7-difluoro-1-methyl-4,5,6,7-tetrahydro-1H-pyrazolo[4,3-c]pyridine-3-carboxamide]	81	8
CCCn1nc(C(=O)NCc2ccc(NC(=O)N(C)C)cc2)c2c1CCN(c1ccc(C(=O)N(C)C)cn1)C2 [Example 74, 5-(5-(dimethylcarbamoyl)pyridin-2-yl)-N-(4-(3,3-dimethylureido)benzyl)-1-propyl-4,5,6,7-tetrahydro-1H-pyrazolo[4,3-c]pyridine-3-carboxamide]	120	11
CN(C)C(=O)Nc1ccc(CNC(=O)c2nn(C3CCOCC3)c3c2CN(c2ccc(C(=O)N(C)C)cn2)CC3)cc1 [Example 76, 5-(5-(dimethylcarbamoyl)pyridin-2-yl)-N-(4-(3,3-dimethylureido)benzyl)-1-(tetrahydro-2H-pyran-4-yl)-4,5,6,7-tetrahydro-1H-pyrazolo[4,3-c]pyridine-3-carboxamide]	156	57
CN(C)C(=O)Nc1ccc(CNC(=O)c2nn(CC3CC3)c3c2CN(c2ccc(C(=O)N(C)C)cn2)CC3)cc1 [Example 89, 1-(cyclopropylmethyl)-5-(5-(dimethylcarbamoyl)pyridin-2-yl)-N-(4-(3,3-dimethylureido)benzyl)-4,5,6,7-tetrahydro-1H-pyrazolo[4,3-c]pyridine-3-carboxamide]	149	12
CN(C)C(=O)Nc1ccc(CNC(=O)c2nn(C3COC3)c3c2CN(c2ccc(C(=O)N(C)C)cn2)CC3)cc1 [Example 94, 5-(5-(dimethylcarbamoyl)pyridin-2-yl)-N-(4-(3,3-dimethylureido)benzyl)-1-(oxetan-3-yl)-4,5,6,7-tetrahydro-1H-pyrazolo[4,3-c]pyridine-3-carboxamide]	89	49
CN(C)C(=O)Nc1ccc(CNC(=O)c2nn(C3CCC3)c3c2CN(c2ccc(C(=O)N(C)C)cn2)CC3)cc1 [Example 96, 1-cyclobutyl-5-(5-(dimethylcarbamoyl)pyridin-2-yl)-N-(4-(3,3-dimethylureido)benzyl)-4,5,6,7-tetrahydro-1H-pyrazolo[4,3-c]pyridine-3-carboxamide]	66	5
CC(C)n1nc(C(=O)NCc2ccc(NC(=O)N(C)C)cc2)c2c1CCN(c1ccc(N3CC4(CC4)CC3=O)cn1)C2 [Example 97, N-(4-(3,3-dimethylureido)benzyl)-1-isopropyl-5-(5-(6-oxo-5-azaspiro[2.4]heptan-5-yl)pyridin-2-yl)-4,5,6,7-tetrahydro-1H-pyrazolo[4,3-c]pyridine-3-carboxamide]	3480	65
CC(C)n1nc(C(=O)NCc2ccc(NC(=O)N(C)C)cc2)c2c1CCN(c1ccc(N3CCOCCC3=O)cn1)C2 [Example 100, N-(4-(3,3-dimethylureido)benzyl)-1-isopropyl-5-(5-(5-oxo-1,4-oxazepan-4-yl)pyridin-2-yl)-4,5,6,7-tetrahydro-1H-pyrazolo[4,3-c]pyridine-3-carboxamide]	1800	174
CC(C)n1nc(C(=O)NCc2ccc(NC(=O)N(C)C)cc2)c2c1CCN(c1ccc(N3CCOCC3=O)cn1)C2 [Example 103, N-(4-(3,3-dimethylureido)benzyl)-1-isopropyl-5-(5-(3-oxomorpholino)pyridin-2-yl)-4,5,6,7-tetrahydro-1H-pyrazolo[4,3-c]pyridine-3-carboxamide]	535	47

Results, then the molecule that gave them:

IC50 [1] [nM]	EC50 (STAT6) [nM]	Compound
5020	64	CC(C)n1nc(C(=O)NCc2ccc(NC(=O)N(C)C)cc2)c2c1CCN(c1ccc(N3C[C@H](C)CC3=O)cn1)C2 [Example 67, (R)-N-(4-(3,3-dimethylureido)benzyl)-1-isopropyl-5-(5-(4-methyl-2-oxopyrrolidin-1-yl)pyridin-2-yl)-4,5,6,7-tetrahydro-1H-pyrazolo[4,3-c]pyridine-3-carboxamide]
8110	1070	CC(C)n1nc(C(=O)NCc2ccc(NC(=O)N(C)C)cc2)c2c1CCN(c1ccc(N3C(=O)CC[C@H]3CO)cn1)C2 [Example 69, (S)-N-(4-(3,3-dimethylureido)benzyl)-5-(5-(2-(hydroxymethyl)-5-oxopyrrolidin-1-yl)pyridin-2-yl)-1-isopropyl-4,5,6,7-tetrahydro-1H-pyrazolo[4,3-c]pyridine-3-carboxamide]
9350	121	CC(C)n1nc(C(=O)NCc2ccc(NC(=O)N(C)C)cc2)c2c1CCN(c1ccc(N3C(=O)CCC34CC4)cn1)C2 [Example 73, N-(4-(3,3-dimethylureido)benzyl)-1-isopropyl-5-(5-(5-oxo-4-azaspiro[2.4]heptan-4-yl)pyridin-2-yl)-4,5,6,7-tetrahydro-1H-pyrazolo[4,3-c]pyridine-3-carboxamide]
4560	2830	CC(C)n1nc(C(=O)NCc2ccc(NC(=O)N(C)C)cc2)c2c1CCN(c1ccc(N3C[C@H](CO)CC3=O)cn1)C2 [Example 75, (R)-N-(4-(3,3-dimethylureido)benzyl)-5-(5-(4-(hydroxymethyl)-2-oxopyrrolidin-1-yl)pyridin-2-yl)-1-isopropyl-4,5,6,7-tetrahydro-1H-pyrazolo[4,3-c]pyridine-3-carboxamide]
1780	41	CC[C@H]1CCC(=O)N1c1ccc(N2CCc3c(c(C(=O)NCc4ccc(NC(=O)N(C)C)cc4)nn3C(C)C)C2)nc1 [Example 79, (S)-N-(4-(3,3-dimethylureido)benzyl)-5-(5-(2-ethyl-5-oxopyrrolidin-1-yl)pyridin-2-yl)-1-isopropyl-4,5,6,7-tetrahydro-1H-pyrazolo[4,3-c]pyridine-3-carboxamide]
56	2	CC(C)n1nc(C(=O)NCc2ccc(NC(=O)N(C)C)cc2)c2c1CCN(c1ccc(N3CC[C@H](F)C3=O)cn1)C2 [Example 84, (S)-N-(4-(3,3-dimethylureido)benzyl)-5-(5-(3-fluoro-2-oxopyrrolidin-1-yl)pyridin-2-yl)-1-isopropyl-4,5,6,7-tetrahydro-1H-pyrazolo[4,3-c]pyridine-3-carboxamide]
2080	424	CC(C)n1nc(C(=O)NCc2ccc(NC(=O)N(C)C)cc2)c2c1CCN(c1ccc(N3C(=O)CC[C@@H]3CO)cn1)C2 [Example 88, (R)-N-(4-(3,3-dimethylureido)benzyl)-5-(5-(2-(hydroxymethyl)-5-oxopyrrolidin-1-yl)pyridin-2-yl)-1-isopropyl-4,5,6,7-tetrahydro-1H-pyrazolo[4,3-c]pyridine-3-carboxamide]
327	14	CC(C)n1nc(C(=O)NCc2ccc(NC(=O)N(C)C)cc2)c2c1CCN(c1ccc(N3CC4CC4C3=O)cn1)C2 (centres unmarked) [Example 91, N-(4-(3,3-dimethylureido)benzyl)-1-isopropyl-5-(5-(2-oxo-3-azabicyclo[3.1.0]hexan-3-yl)pyridin-2-yl)-4,5,6,7-tetrahydro-1H-pyrazolo[4,3-c]pyridine-3-carboxamide]
573	48	CC(C)n1nc(C(=O)NCc2ccc(NC(=O)N(C)C)cc2)c2c1CCN(c1ccc(N3CC[C@@H](F)C3=O)cn1)C2 [Example 98, (R)-N-(4-(3,3-dimethylureido)benzyl)-5-(5-(3-fluoro-2-oxopyrrolidin-1-yl)pyridin-2-yl)-1-isopropyl-4,5,6,7-tetrahydro-1H-pyrazolo[4,3-c]pyridine-3-carboxamide]
453	17	CC1COC(=O)N1c1ccc(N2CCc3c(c(C(=O)NCc4ccc(NC(=O)N(C)C)cc4)nn3C(C)C)C2)nc1 (centres unmarked) [Example 99, N-(4-(3,3-dimethylureido)benzyl)-1-isopropyl-5-(5-(4-methyl-2-oxooxazolidin-3-yl)pyridin-2-yl)-4,5,6,7-tetrahydro-1H-pyrazolo[4,3-c]pyridine-3-carboxamide]
